Our source for the IC50 and viability, T/C values is PubChem BioAssay AID1963980 (Molecular Pharmacology Branch, DTP, NCI, 2024).

Values joined by “and” are separate entries in the source; they are usually repeats but may differ in a detail not shown here. Equal values may be shown once.

As a reminder, the IC50 is the point on the concentration scale where inhibition reaches its midpoint. Broadly, the viability, T/C is the result in the treated group divided by that in the control group, in per cent.

The assay deals with 475296-252-R-J1-PDC spheroid viability. In words: Anticancer human tumor 475296-252-R-J1-PDC patient-derived rectal carcinoma cell line growth inhibition [PI3K]. Conditions: spheroids with HUVEC and MSC; for viability, T/C: stronger effect = lower value. In a few lines:
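Stroma-containing spheroids: tumor line, pooled-donor HUVEC, hMSC. Treatments: targeted agents with PI3K inhibitors. Dosing: clinically relevant, half-log spacing, 10 microM ceiling without known Cmax. Read-out: cell viability.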

The mark [1] stands for this setting: curve of first compound, second compound 0.0316 µM.
Where [2] appears, read: curve of first compound, second compound 0.1 µM.
[3] abbreviates: curve of first compound, second compound 0.316 µM.
The mark [4] stands for this setting: curve of first compound, second compound 1 µM.
Where [5] appears, read: second compound 0.0316 µM, first compound 0.0316 µM.
The mark [6] stands for this setting: second compound 0.0316 µM, first compound 0.1 µM.
Setting [7] is: second compound 0.0316 µM, first compound 0.316 µM.
The mark [8] stands for this setting: second compound 0.0316 µM, first compound 1 µM.
The mark [9] stands for this setting: second compound 0.0316 µM, first compound 3.16 µM.
[10] abbreviates: second compound 0.0316 µM, first compound 10 µM.
Setting [11] is: second compound 0.1 µM, first compound 0.0316 µM.
Where [12] appears, read: second compound 0.1 µM, first compound 0.1 µM.
Setting [13] is: second compound 0.1 µM, first compound 0.316 µM.
Where [14] appears, read: second compound 0.1 µM, first compound 1 µM.
[15] abbreviates: second compound 0.1 µM, first compound 3.16 µM.
Where [16] appears, read: second compound 0.1 µM, first compound 10 µM.
[17] abbreviates: second compound 0.316 µM, first compound 0.0316 µM.
Setting [18] is: second compound 0.316 µM, first compound 0.1 µM.
Setting [19] is: second compound 0.316 µM, first compound 0.316 µM.
The mark [20] stands for this setting: second compound 0.316 µM, first compound 1 µM.
[21] abbreviates: second compound 0.316 µM, first compound 3.16 µM.
The mark [22] stands for this setting: second compound 0.316 µM, first compound 10 µM.
Where [23] appears, read: second compound 1 µM, first compound 0.0316 µM.
Setting [24] is: second compound 1 µM, first compound 0.1 µM.
Setting [25] is: second compound 1 µM, first compound 0.316 µM.
Setting [26] is: second compound 1 µM, first compound 1 µM.
The mark [27] stands for this setting: second compound 1 µM, first compound 3.16 µM.
Where [28] appears, read: second compound 1 µM, first compound 10 µM.
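Note: spheroids exposed to agents for seven days before readout.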

Take `CCCS(=O)(=O)Nc1ccc(F)c(C(=O)c2c[nH]c3ncc(-c4ccc(Cl)cc4)cc23)c1F` + CC(Nc1ccc2c(c1)OCCn1cc(N3C(=O)OCC3C(F)F)nc1-2)C(N)=O: the IC50 is over 10 µM (curve of first compound, second compound 0.00316 µM); over 10 µM (curve of first compound, second compound 0.01 µM); over 10 µM under setting [1]; over 10 µM under setting [2]; over 10 µM under setting [3]; over 10 µM under setting [4]. Also, the viability, T/C reads like this: (second compound 0.00316 µM, first compound 0.0316 µM) 84.5%; (second compound 0.00316 µM, first compound 0.1 µM) 84.3%; (second compound 0.00316 µM, first compound 0.316 µM) 81.7%; (second compound 0.00316 µM, first compound 1 µM) 85.2%; (second compound 0.00316 µM, first compound 3.16 µM) 92.6%; (second compound 0.00316 µM, first compound 10 µM) 101%. In addition, the viability, T/C is 102% (second compound 0.01 µM, first compound 0.0316 µM); 89% (second compound 0.01 µM, first compound 0.1 µM); 90.4% (second compound 0.01 µM, first compound 0.316 µM); 83.2% (second compound 0.01 µM, first compound 1 µM); 82.6% (second compound 0.01 µM, first compound 3.16 µM); 91.7% (second compound 0.01 µM, first compound 10 µM). Further, the viability, T/C by setting is: under setting [5], 97.5%; under setting [6], 94.8%; under setting [7], 96.8%; under setting [8], 89.8%; under setting [9], 75.9%; under setting [10], 88.3%. The viability, T/C by setting is: under setting [11], 83.8%; under setting [12], 96.6%; under setting [13], 89.6%; under setting [14], 84.5%; under setting [15], 81.4%; under setting [16], 81.9%. The viability, T/C was 77.4% under setting [17]; 94.5% under setting [18]; 89.5% under setting [19]; 79.1% under setting [20]; 81.4% under setting [21]; 70.4% under setting [22]. The viability, T/C by setting is: under setting [23], 90.7%; under setting [24], 92.6%; under setting [25], 80.4%; under setting [26], 90.3%; under setting [27], 83.1%; under setting [28], 72.7%.

Regarding `Cn1cnc2c(F)c(Nc3ccc(Br)cc3Cl)c(C(=O)NOCCO)cc21`, the viability, T/C reads like this: (compound 0.00949 µM) 97.5% [middle of 4 runs]; (compound 0.03 µM) 91.9% [middle of 4 runs]; (compound 0.0949 µM) 90.2% [middle of 4 runs]; (compound 0.3 µM) 80.8% [middle of 4 runs]; (compound 3 µM) 61.2% [middle of 4 runs]. For the same molecule, the IC50 (curve of compound) was > 3 µM and 2.76 µM.

For `C#Cc1c(F)ccc2cc(O)cc(-c3ncc4c(N5CC6CCC(C5)N6)nc(OCC56CCCN5CC(F)C6)nc4c3F)c12` (stereo unspecified), the viability, T/C (compound 0.0316 µM) was 95.9% [middle of 4 runs]; the viability, T/C (compound 0.1 µM) is 90.9% [middle of 4 runs]; the viability, T/C (compound 0.316 µM) was 84.4% [middle of 4 runs]; the viability, T/C (compound 1 µM) was 70.1% [middle of 4 runs]; the viability, T/C (compound 10 µM) was 56.8% [middle of 4 runs]. The IC50 (curve of compound) was 8.36 µM and > 10 µM.

For the molecule `C[C@@H](NC(=O)c1ncnc(N)c1Cl)c1ncc(C(=O)Nc2cc(C(F)(F)F)c(Cl)cn2)s1` + CC(Nc1ncnc2nc[nH]c12)c1cc2cccc(Cl)c2c(=O)n1-c1ccccc1, the IC50 reads like this: under setting [1], over 10 µM; under setting [2], over 10 µM; under setting [3], over 10 µM; under setting [4], over 10 µM; (curve of first compound, second compound 3.16 µM) over 10 µM; (curve of first compound, second compound 10 µM) over 10 µM. Further, the viability, T/C is, setting by setting: under setting [5], 77.6%; under setting [6], 90.2%; under setting [7], 109%; under setting [8], 114%; under setting [9], 102%; under setting [10], 91.5%. For the same molecule, the viability, T/C reads like this: under setting [11], 91%; under setting [12], 92.5%; under setting [13], 96.7%; under setting [14], 109%; under setting [15], 115%; under setting [16], 92%. In addition, the viability, T/C by setting is: under setting [17], 89.7%; under setting [18], 86.4%; under setting [19], 88.2%; under setting [20], 96.7%; under setting [21], 108%; under setting [22], 92.2%. Further, the viability, T/C is, setting by setting: under setting [23], 94.4%; under setting [24], 90.5%; under setting [25], 91%; under setting [26], 112%; under setting [27], 106%; under setting [28], 75.5%. Moreover, the viability, T/C is, setting by setting: (second compound 3.16 µM, first compound 0.0316 µM) 89.3%; (second compound 3.16 µM, first compound 0.1 µM) 94.8%; (second compound 3.16 µM, first compound 0.316 µM) 82%; (second compound 3.16 µM, first compound 1 µM) 102%; (second compound 3.16 µM, first compound 3.16 µM) 110%; (second compound 3.16 µM, first compound 10 µM) 67.4%. The viability, T/C is 87.7% (second compound 10 µM, first compound 0.0316 µM); 84.8% (second compound 10 µM, first compound 0.1 µM); 93.5% (second compound 10 µM, first compound 0.316 µM); 92.8% (second compound 10 µM, first compound 1 µM); 87.1% (second compound 10 µM, first compound 3.16 µM); 63.4% (second compound 10 µM, first compound 10 µM).
